What follows are compounds tested on rat small-intestinal brush border membrane vesicles (assay: Inhibitory effect on 33PO4 uptake into rat small-intestinal brush border membrane vesicles (rapid filtration method)). Conditions: 1 µM test compound; 33PO4 uptake into rat small-intestinal BBMVs, 60 seconds.
Type: biochemical, Wistar female rat
Procedure, shortened: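 Uptake was terminated by ice-cold 110 mM NaCl, 1 mM KH2PO4, 10 mM HEPES (pH 7.5) buffer and immediate suction filtration, then washing. Using rat small-intestinal BBMVs, retained 33PO4 was quantified by liquid scintillation counting as transport activity.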

| SMILES | Rate of uptake inhibition (%) (1 µM) |
| --- | --- |
| C[C@]12CCCN1N(Cc1cccc(OC(F)F)c1)C(=O)C(C(=O)Nc1ccc(C(F)(F)F)cc1-c1cc(C(F)(F)F)ncn1)=C2O [Example 177] | 85% |
| C[C@]12CCCN1N(Cc1ccccc1C#N)C(=O)C(C(=O)Nc1ccc(C(F)(F)F)cc1-c1cc(C(F)(F)F)ncn1)=C2O [Example 178] | 81% |
| C[C@]12CCCN1N(Cc1cccc(C#N)c1)C(=O)C(C(=O)Nc1ccc(C(F)(F)F)cc1-c1cc(C(F)(F)F)ncn1)=C2O [Example 179] | 83% |
| C[C@]12CCCN1N(Cc1ccccc1Cl)C(=O)C(C(=O)Nc1ccc(C(F)(F)F)cc1-c1cc(C(F)(F)F)ncn1)=C2O [Example 180] | 75% |
| C[C@]12CCCN1N(Cc1cccc(Cl)c1)C(=O)C(C(=O)Nc1ccc(C(F)(F)F)cc1-c1cc(C(F)(F)F)ncn1)=C2O [Example 181] | 85% |
| C[C@]12CCCN1N(Cc1ccc(Cl)cc1)C(=O)C(C(=O)Nc1ccc(C(F)(F)F)cc1-c1cc(C(F)(F)F)ncn1)=C2O [Example 182] | 86% |
| COC(=O)c1cccc(CN2C(=O)C(C(=O)Nc3ccc(C(F)(F)F)cc3-c3cc(C(F)(F)F)ncn3)=C(O)[C@@]3(C)CCCN23)c1 [Example 183] | 82% |
| C[C@]12CCCN1N(Cc1ccc(F)c(Br)c1)C(=O)C(C(=O)Nc1ccc(C(F)(F)F)cc1-c1cc(C(F)(F)F)ncn1)=C2O [Example 184] | 79% |
| Cc1ccccc1CN1C(=O)C(C(=O)Nc2ccc(C(F)(F)F)cc2-c2cc(C(F)(F)F)ncn2)=C(O)[C@@]2(C)CCCN12 [Example 185] | 83% |
| Cc1cccc(CN2C(=O)C(C(=O)Nc3ccc(C(F)(F)F)cc3-c3cc(C(F)(F)F)ncn3)=C(O)[C@@]3(C)CCCN23)c1 [Example 186] | 88% |
| Cc1ccc(CN2C(=O)C(C(=O)Nc3ccc(C(F)(F)F)cc3-c3cc(C(F)(F)F)ncn3)=C(O)[C@@]3(C)CCCN23)cc1 [Example 187] | 80% |
| C[C@]12CCCN1N(Cc1ccccc1)C(=O)C(C(=O)Nc1ccc(C(F)(F)F)cc1-c1cc(C(F)(F)F)ncn1)=C2O [Example 188] | 93% |
| C[C@]12CCCN1N(Cc1cccc(OC(F)(F)F)c1)C(=O)C(C(=O)Nc1ccc(C(F)(F)F)cc1-c1cc(C(F)(F)F)ncn1)=C2O [Example 189] | 73% |
| C[C@]12CCCN1N(Cc1cc(F)cc(F)c1)C(=O)C(C(=O)Nc1cc(F)c(Br)c(F)c1)=C2O [Example 190] | 84% |
| C[C@]12CCCN1N(Cc1ccc(F)c(F)c1)C(=O)C(C(=O)Nc1cc(F)c(Br)c(F)c1)=C2O [Example 191] | 87% |
| C[C@]12CCCN1N(Cc1ccc(F)cc1F)C(=O)C(C(=O)Nc1cc(F)c(Br)c(F)c1)=C2O [Example 192] | 88% |
| C[C@]12CCCN1N(Cc1cc(F)ccc1F)C(=O)C(C(=O)Nc1cc(F)c(Br)c(F)c1)=C2O [Example 193] | 82% |
| C[C@]12CCCN1N(Cc1cc(F)c(F)cc1F)C(=O)C(C(=O)Nc1cc(F)c(Br)c(F)c1)=C2O [Example 194] | 80% |
| Cc1cccc(CN2C(=O)C(C(=O)Nc3cc(F)c(Br)c(F)c3)=C(O)[C@@]3(C)CCCN23)c1F [Example 195] | 76% |
| C[C@]12CCCN1N(Cc1cc(F)c(F)c(F)c1)C(=O)C(C(=O)Nc1cc(F)c(Br)c(F)c1)=C2O [Example 197] | 82% |
| C[C@]12CCCN1N(Cc1cccc(Cl)c1F)C(=O)C(C(=O)Nc1ccc(C(F)(F)F)cc1-c1ccc(C(F)(F)F)nc1)=C2O [Example 198] | 75% |

| SMILES | Rate of uptake inhibition (%) (1 µM) |
| --- | --- |
| C[C@]12CCCN1N(Cc1ccc(F)cc1)C(=O)C(C(=O)Nc1ccc(C(F)(F)F)cc1-c1ccc(C(F)(F)F)nc1)=C2O [Example 199] | 79% |
| C[C@]12CCCN1N(Cc1ccccc1F)C(=O)C(C(=O)Nc1ccc(C(F)(F)F)cc1-c1ccc(C(F)(F)F)nc1)=C2O [Example 200] | 80% |
| C[C@]12CCCN1N(Cc1cccc(F)c1Cl)C(=O)C(C(=O)Nc1ccc(C(F)(F)F)cc1-c1ccc(C(F)(F)F)nc1)=C2O [Example 201] | 77% |
| COc1cc(CN2C(=O)C(C(=O)Nc3ccc(C(F)(F)F)cc3-c3ccc(C(F)(F)F)nc3)=C(O)[C@@]3(C)CCCN23)cc(OC)c1 [Example 202] | 75% |
| C[C@]12CCCN1N(Cc1c(F)cccc1F)C(=O)C(C(=O)Nc1ccc(C(F)(F)F)cc1-c1ccc(C(F)(F)F)nc1)=C2O [Example 203] | 91% |
| C[C@]12CCCN1N(Cc1c(F)cccc1Cl)C(=O)C(C(=O)Nc1ccc(C(F)(F)F)cc1-c1ccc(C(F)(F)F)nc1)=C2O [Example 204] | 87% |
| Cc1cccc(CN2C(=O)C(C(=O)Nc3ccc(C(F)(F)F)cc3-c3ccc(C(F)(F)F)nc3)=C(O)[C@@]3(C)CCCN23)c1F [Example 205] | 86% |
| C[C@]12CCCN1N(Cc1cccc(F)c1)C(=O)C(C(=O)Nc1ccc(C(F)(F)F)cc1-c1ccc(C(F)(F)F)nc1)=C2O [Example 206] | 76% |
| C[C@]12CCCN1N(Cc1ccccc1F)C(=O)C(C(=O)Nc1ccc(C(F)(F)F)cc1-c1cc(C(F)(F)F)ncn1)=C2O [Example 207] | 73% |
| C[C@]12CCCN1N(Cc1ccc(F)cc1)C(=O)C(C(=O)Nc1ccc(C(F)(F)F)cc1-c1cc(C(F)(F)F)ncn1)=C2O [Example 208] | 90% |
| C[C@]12CCCN1N(Cc1cccc(Cl)c1F)C(=O)C(C(=O)Nc1ccc(C(F)(F)F)cc1-c1cc(C(F)(F)F)ncn1)=C2O [Example 209] | 76% |
| C[C@]12CCCN1N(Cc1c(F)cccc1Cl)C(=O)C(C(=O)Nc1ccc(C(F)(F)F)cc1-c1cc(C(F)(F)F)ncn1)=C2O [Example 210] | 71% |
| C[C@]12CCCN1N(Cc1cc(Cl)ccc1F)C(=O)C(C(=O)Nc1ccc(C(F)(F)F)cc1-c1cc(C(F)(F)F)ncn1)=C2O [Example 211] | 72% |
| C[C@]12CCCN1N(Cc1c(F)cccc1F)C(=O)C(C(=O)Nc1ccc(C(F)(F)F)cc1-c1cc(C(F)(F)F)ncn1)=C2O [Example 212] | 98% |
| C[C@]12CCCN1N(Cc1cc(F)cc(F)c1)C(=O)C(C(=O)Nc1ccc(C(F)(F)F)cc1-c1cc(C(F)(F)F)ncn1)=C2O [Example 213] | 79% |
| C[C@]12CCCN1N(Cc1ccc(F)c(F)c1)C(=O)C(C(=O)Nc1ccc(C(F)(F)F)cc1-c1cc(C(F)(F)F)ncn1)=C2O [Example 214] | 91% |
| Cc1cccc(CN2C(=O)C(C(=O)Nc3ccc(C(F)(F)F)cc3-c3cc(C(F)(F)F)ncn3)=C(O)[C@@]3(C)CCCN23)c1F [Example 215] | 86% |
| C[C@]12CCCN1N(Cc1ccccc1C#N)C(=O)C(C(=O)Nc1cc(F)c(Br)c(F)c1)=C2O [Example 218] | 82% |
| C[C@]12CCCN1N(Cc1ccccc1Cl)C(=O)C(C(=O)Nc1cc(F)c(Br)c(F)c1)=C2O [Example 219] | 95% |
| C[C@]12CCCN1N(Cc1cccc(C#N)c1)C(=O)C(C(=O)Nc1cc(F)c(Br)c(F)c1)=C2O [Example 220] | 96% |
